Data reported in patent US7015228B2, “4-amino-2-(2-pyridyl)pyrimidines as microbicidal active substances” (Ciba Specialty Chemicals Corporation, priority 2001, dated 2006).
Values after ≈ are worked out from the molar mass of the structure shown.

How the values were obtained:
Format in all cases: cell-based
[1] = tested on: Escherichia coli NCTC 8196; assay: Minimum inhibitory concentration (MIC) in microtitre plates; conditions: for Minimum inhibitory concentration (MIC) E. coli: Table 7, 48 hours at 37° C., MIC = ≦20% growth compared to control; for Minimum inhibitory concentration (MIC) E. coli NCTC 8196: Table 8, * = significant inhibition of growth, but not complete inhibition
Method in brief: (§1)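 Compounds in DMSO, 1:2 dilution series; bacteria at 1–5×10^6 CFU/ml diluted 1:100 in CASO broth. Incubation 48 h at 37° C, growth read as OD 620 nm. MIC is the lowest concentration giving ≤20% growth relative to control; duplicates.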

[2] = tested on: Staphylococcus hominis DMS 20328; assay: as above; conditions: Table 7; 48 hours at 37° C.; MIC = ≦20% growth compared to control
Method in brief: as §1

[3] = tested on: Aspergillus niger ATCC 6275; assay: Minimum inhibitory concentration (MIC), further microorganisms; conditions: Table 8; * = significant inhibition of growth, but not complete inhibition
Method in brief: (§2)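 Organisms at 1–5×10^6 CFU/ml were diluted 1:100 into CASO broth (bacteria, yeast) or Sabouraud 2% glucose broth (mould) over 1:2 DMSO dilution series of compound. Bacteria and yeast were incubated 48 h at 37 °C and mould 5 days at 28 °C. MIC is the lowest concentration giving ≤20% growth versus control by OD620, in duplicate.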

[4] = tested on: Candida albicans ATCC 10231; assay: as above; conditions: Table 8; * = significant inhibition of growth, but not complete inhibition
Method in brief: as §2

[5] = tested on: Enterococcus hirae ATCC 10541; assay: as above; conditions: Table 8; * = significant inhibition of growth, but not complete inhibition
Method in brief: as §2

[6] = tested on: Epidermophyton floccosum DSM 10709; assay: as above; conditions: Table 8; * = significant inhibition of growth, but not complete inhibition
Method in brief: as §2

[7] = tested on: Klebsiella pneumonia ATCC 4352; assay: as above; conditions: Table 8; * = significant inhibition of growth, but not complete inhibition
Method in brief: as §2

[8] = tested on: Micrococcus luteus ATCC 9341; assay: as above; conditions: Table 8; * = significant inhibition of growth, but not complete inhibition
Method in brief: as §2

[9] = tested on: Pseudomonas aeruginosa CIP A-22; assay: as above; conditions: Table 8
Method in brief: as §2

[10] = tested on: S. epidermidis ATCC 12228; assay: as above; conditions: Table 8; * = significant inhibition of growth, but not complete inhibition
Method in brief: as §2

[11] = tested on: Salmonella choleraesuis ATCC 10708; assay: as above; conditions: Table 8
Method in brief: as §2

[12] = tested on: Staphylococcus aureus ATCC 9144; assay: as above; conditions: Table 8; * = significant inhibition of growth, but not complete inhibition
Method in brief: as §2

[13] = tested on: Trichophyton mentagrophytes ATCC 9533; assay: as above; conditions: Table 8; * = significant inhibition of growth, but not complete inhibition
Method in brief: as §2

SMILES: COCCc1cc(NCCCCCCCCN)nc(-c2ccccn2)n1 [compound 77]
- Minimum inhibitory concentration (MIC) E. coli [1]: 120 µg/mL (≈ 336 µM)
- Minimum inhibitory concentration (MIC) E. coli NCTC 8196 [1]: >60 µg/mL
- Minimum inhibitory concentration (MIC) S. hominis [2]: 30 µg/mL (≈ 83.9 µM)
- Minimum inhibitory concentration (MIC) Aspergillus niger ATCC 6275 [3]: >60 µg/mL
- Minimum inhibitory concentration (MIC) Candida albicans ATCC 10231 [4]: >60 µg/mL
- Minimum inhibitory concentration (MIC) Enterococcus hirae ATCC 10541 [5]: >60 µg/mL
- Minimum inhibitory concentration (MIC) Epidermophyton floccosum DSM 10709 [6]: >60 µg/mL
- Minimum inhibitory concentration (MIC) Klebsiella pneumonia ATCC 4352 [7]: >60 µg/mL
- Minimum inhibitory concentration (MIC) Micrococcus luteus ATCC 9341 [8]: >60 µg/mL
- Minimum inhibitory concentration (MIC) Pseudomonas aeruginosa CIP A-22 [9]: >60 µg/mL
- Minimum inhibitory concentration (MIC) S. epidermidis ATCC 12228 [10]: >60 µg/mL
- Minimum inhibitory concentration (MIC) Salmonella choleraesuis ATCC 10708 [11]: >60 µg/mL
- Minimum inhibitory concentration (MIC) Staphylococcus aureus ATCC 9144 [12]: >60 µg/mL
- Minimum inhibitory concentration (MIC) Trichophyton mentagrophytes ATCC 9533 [13]: >60 µg/mL

SMILES: COCCc1cc(NCCCCCCCCCN)nc(-c2ccccn2)n1 [compound 78]
- Minimum inhibitory concentration (MIC) E. coli [1]: 60 µg/mL (≈ 161 µM)
- Minimum inhibitory concentration (MIC) E. coli NCTC 8196 [1]: >60 µg/mL
- Minimum inhibitory concentration (MIC) S. hominis [2]: 15 µg/mL (≈ 40.4 µM)
- Minimum inhibitory concentration (MIC) Aspergillus niger ATCC 6275 [3]: >60 µg/mL
- Minimum inhibitory concentration (MIC) Candida albicans ATCC 10231 [4]: >60 µg/mL
- Minimum inhibitory concentration (MIC) Enterococcus hirae ATCC 10541 [5]: >60 µg/mL
- Minimum inhibitory concentration (MIC) Epidermophyton floccosum DSM 10709 [6]: >60 µg/mL
- Minimum inhibitory concentration (MIC) Klebsiella pneumonia ATCC 4352 [7]: >60 µg/mL
- Minimum inhibitory concentration (MIC) Micrococcus luteus ATCC 9341 [8]: >60 µg/mL
- Minimum inhibitory concentration (MIC) Pseudomonas aeruginosa CIP A-22 [9]: >60 µg/mL
- Minimum inhibitory concentration (MIC) S. epidermidis ATCC 12228 [10]: *60 μg/mL
- Minimum inhibitory concentration (MIC) Salmonella choleraesuis ATCC 10708 [11]: >60 µg/mL
- Minimum inhibitory concentration (MIC) Staphylococcus aureus ATCC 9144 [12]: *60 μg/mL
- Minimum inhibitory concentration (MIC) Trichophyton mentagrophytes ATCC 9533 [13]: >60 µg/mL

SMILES: COCCc1cc(NCCCCCCCCCCCCN)nc(-c2ccccn2)n1 [compound 79]
- Minimum inhibitory concentration (MIC) E. coli [1]: 20 µg/mL (≈ 48.4 µM)
- Minimum inhibitory concentration (MIC) E. coli NCTC 8196 [1]: 60 µg/mL (≈ 145 µM)
- Minimum inhibitory concentration (MIC) S. hominis [2]: 10 µg/mL (≈ 24.2 µM)
- Minimum inhibitory concentration (MIC) Aspergillus niger ATCC 6275 [3]: >60 µg/mL
- Minimum inhibitory concentration (MIC) Candida albicans ATCC 10231 [4]: *30 μg/mL
- Minimum inhibitory concentration (MIC) Enterococcus hirae ATCC 10541 [5]: >60 µg/mL
- Minimum inhibitory concentration (MIC) Epidermophyton floccosum DSM 10709 [6]: >60 µg/mL
- Minimum inhibitory concentration (MIC) Klebsiella pneumonia ATCC 4352 [7]: >60 µg/mL
- Minimum inhibitory concentration (MIC) Micrococcus luteus ATCC 9341 [8]: 60 µg/mL (≈ 145 µM)
- Minimum inhibitory concentration (MIC) Pseudomonas aeruginosa CIP A-22 [9]: >60 µg/mL
- Minimum inhibitory concentration (MIC) S. epidermidis ATCC 12228 [10]: 30 µg/mL (≈ 72.5 µM)
- Minimum inhibitory concentration (MIC) Salmonella choleraesuis ATCC 10708 [11]: >60 µg/mL
- Minimum inhibitory concentration (MIC) Staphylococcus aureus ATCC 9144 [12]: *60 μg/mL
- Minimum inhibitory concentration (MIC) Trichophyton mentagrophytes ATCC 9533 [13]: >60 µg/mL

SMILES: CCCCCCCCCCCNc1nc(-c2ccccn2)nc(C)c1CC [compound 89]
- Minimum inhibitory concentration (MIC) E. coli [1]: >120 µg/mL
- Minimum inhibitory concentration (MIC) E. coli NCTC 8196 [1]: >60 µg/mL
- Minimum inhibitory concentration (MIC) S. hominis [2]: 3.75 µg/mL (≈ 10.2 µM)
- Minimum inhibitory concentration (MIC) Aspergillus niger ATCC 6275 [3]: 30 µg/mL (≈ 81.4 µM)
- Minimum inhibitory concentration (MIC) Candida albicans ATCC 10231 [4]: 15 µg/mL (≈ 40.7 µM)
- Minimum inhibitory concentration (MIC) Enterococcus hirae ATCC 10541 [5]: 7.5 µg/mL (≈ 20.3 µM)
- Minimum inhibitory concentration (MIC) Epidermophyton floccosum DSM 10709 [6]: 15 µg/mL (≈ 40.7 µM)
- Minimum inhibitory concentration (MIC) Klebsiella pneumonia ATCC 4352 [7]: 60 µg/mL (≈ 163 µM)
- Minimum inhibitory concentration (MIC) Micrococcus luteus ATCC 9341 [8]: 1.9 µg/mL (≈ 5.16 µM)
- Minimum inhibitory concentration (MIC) Pseudomonas aeruginosa CIP A-22 [9]: >60 µg/mL
- Minimum inhibitory concentration (MIC) S. epidermidis ATCC 12228 [10]: 7.5 µg/mL (≈ 20.3 µM)
- Minimum inhibitory concentration (MIC) Salmonella choleraesuis ATCC 10708 [11]: >60 µg/mL
- Minimum inhibitory concentration (MIC) Staphylococcus aureus ATCC 9144 [12]: 7.5 µg/mL (≈ 20.3 µM)
- Minimum inhibitory concentration (MIC) Trichophyton mentagrophytes ATCC 9533 [13]: *7.5 μg/mL

SMILES: CCCCCCCCCCCCCCCNc1nc(-c2ccccn2)nc(C)c1CC [compound 90]
- Minimum inhibitory concentration (MIC) E. coli [1]: 120 µg/mL (≈ 283 µM)
- Minimum inhibitory concentration (MIC) E. coli NCTC 8196 [1]: >60 µg/mL
- Minimum inhibitory concentration (MIC) S. hominis [2]: 30 µg/mL (≈ 70.6 µM)
- Minimum inhibitory concentration (MIC) Aspergillus niger ATCC 6275 [3]: >120 µg/mL
- Minimum inhibitory concentration (MIC) Candida albicans ATCC 10231 [4]: *60 μg/mL
- Minimum inhibitory concentration (MIC) Enterococcus hirae ATCC 10541 [5]: 30 µg/mL (≈ 70.6 µM)
- Minimum inhibitory concentration (MIC) Epidermophyton floccosum DSM 10709 [6]: 60 µg/mL (≈ 141 µM)
- Minimum inhibitory concentration (MIC) Klebsiella pneumonia ATCC 4352 [7]: >60 µg/mL
- Minimum inhibitory concentration (MIC) Micrococcus luteus ATCC 9341 [8]: 15 µg/mL (≈ 35.3 µM)
- Minimum inhibitory concentration (MIC) Pseudomonas aeruginosa CIP A-22 [9]: >60 µg/mL
- Minimum inhibitory concentration (MIC) S. epidermidis ATCC 12228 [10]: *30 μg/mL
- Minimum inhibitory concentration (MIC) Salmonella choleraesuis ATCC 10708 [11]: >60 µg/mL
- Minimum inhibitory concentration (MIC) Staphylococcus aureus ATCC 9144 [12]: *30 μg/mL
- Minimum inhibitory concentration (MIC) Trichophyton mentagrophytes ATCC 9533 [13]: >120 µg/mL
